Assay results: patent publication US11980648B2, “Compositions including ginsenoside 20(S)-Rg3 and methods of using ginsenoside 20(S)-Rg3 to inhibit alpha herpesvirus” (MIDDLE TENNESSEE STATE UNIVERSITY, priority 2020, dated 2024)
Values joined by “and” are separate entries in the source; they are usually repeats but may differ in a detail not shown here. Identical values can stand only once.

Experiments:
HSV-1 [1] = test: Virus inhibition, HSV-1 on Vero cells (PrestoBlue); format: cell-based, herpes simplex virus type 1 (MacIntyre strain); conditions: at the non-toxic concentration of Table 1; MOI 0.1; compound and virus added simultaneously; parentheses = greater cell death than virus alone
Protocol: (§1) Viruses and Quantification. Herpes simplex virus type 1 (HSV-1, MacIntyre strain, ATCC, VR-539) or herpes simplex virus type 2 (HSV-2, ATCC, VR-734) were used in these studies. Virus titer was determined by plaque assay. Briefly, following 2 hour-adsorption of various virus dilutions onto a Vero cell monolayer in a 24-well plate, the medium was removed and cells were overlaid with 1.5% carboxymethylcellulose (Sigma Chemical Company, St. Louis, Mo.) and incubated 48 hours at 37° C. with 5% CO2. After incubation, cells were fixed with methanol, stained with Giemsa (Sigma Chemical Company, St. Louis, Mo.) and plaques were counted. Each virus dilution was prepared in quadruplicate.
(§2) Cytotoxicity and Virus Inhibition. All ginsenosides, isomers, and protopanaxadiols were evaluated for toxic effects on Vero cells prior to anti-viral testing. Cells were seeded at 5000 cells/well in a black 96-well plate with clear bottom in a volume of 100 μL and allowed to attach for 24 hours. The P. ginseng compounds were prepared in DMSO at 100 μM and were taken through serial two-fold dilutions to determine the concentration when the rate of cell death was less than 10% compared to control, untreated cells. Each dilution was tested in three wells and all assays were repeated three times. Following a 48 hour-incubation at 37° C. in 5% CO2, 11 μL of PrestoBlue (Invitrogen, Carlsbad, Calif.) was added to each well and the plate was incubated for an additional 30 minutes. PrestoBlue determines cell viability by changing from blue to red as resazurin is reduced to resorufin by viable cells. Following the PrestoBlue incubation, fluorescence was determined by spectrophotometric reading using Soft Max Pro (Molecular Diagnostics, San Jose, Calif., USA).
(§3) For cytotoxicity testing, 4 μL of dilutions of the ginsenosides or protopanaxadiols were added to 396 μL of medium 199 and 100 μL of this mixture was added to each of three wells. For anti-viral testing, 4 μL of the non-toxic reagent and 4 μL of HSV-1 or HSV-2 diluted to an MOI of 0.1 were added to 392 μL of medium 199 and 100 μL of this mixture was added to each of three wells. Virus inhibition was determined by comparing the cell death of reagent-exposed cells with cell death of control cells only receiving virus. The 50% inhibitory concentration (IC50) was determined through a series of two-fold dilutions and calculation by linear regression analysis.

Vero cells = test: Cytotoxicity on Vero cells (PrestoBlue); format: cell-based; conditions: for Cytotoxicity (non-toxic concentration): concentration causing less than 10% cell death compared with controls, Vero cells, 48 hour incubation, tested from 100 μM in 2-fold dilutions
Protocol: Cells. Vero cells (American Type Culture Collection (ATCC), Manassas, VA, CCL-81) were maintained in medium 199 (Sigma Chemical Company, St. Louis, MO) that was supplemented with 8% fetal bovine serum (Invitrogen, Carlsbad, CA), 1.25 μg/mL fungizone (Invitrogen, Carlsbad, CA) and penicillin-streptomycin, 1000 U/mL and 1 mg/mL respectively (Sigma Chemical Company, St. Louis, MO). Cells were passed weekly using 0.1% trypsin (Sigma Chemical Company, St. Louis, MO) to detach the cells from the flasks. Cell quantification was done by trypan blue exclusion.
as §2, with “The P. ginseng compounds were prepared in DMSO at 100 μM and were taken through serial two-fold dilutions to determine the concentration when the rate of cell death was less than 10% compared to control, untreated cells.” left out
as §3

coxsackie B 3 virus = conditions: 100 μg/mL; cited from earlier work
human rhinovirus 3 = conditions: 100 μg/mL; cited from earlier work
HSV-1 [2] = test: Plaque reduction of HSV-1 on Vero cell monolayer; format: cell-based, herpes simplex virus type 1 (MacIntyre strain); conditions: valacyclovir 16 μM, 20(S)-Rg3 50 μM, about 50 PFU/well, 48 hours
Protocol: as §1
The plaque assay procedure also was used to evaluate the percent plaque reduction; the only procedural change was that a constant virus concentration was used (50 plaque forming units (PFU)/well). Plaque reduction was measured by comparing the control (virus only), with valacyclovir (16 μM) with virus or 20(S)-Rg3 (50 μM) with virus. Sample wells were evaluated in quadruplicate. Following the 2 hour-virus adsorption, the methylcellulose-medium containing the same concentrations of valacyclovir or Rg3 was added to the appropriate wells. After 48 hours, plaques were fixed, stained and counted.

HSV-1 [3] = test: Time studies of HSV-1 inhibition (PrestoBlue); format: cell-based, herpes simplex virus type 1; conditions: Human alphaherpesvirus 1; HSV-1 incubated with compound 0 to 4 hours prior to addition to cells; valacyclovir 16 μM; read-out: percent inhibition of HSV-1
Protocol: Time Studies. For virus inhibition studies described above, reagent 20(S)-Rg3 and virus were added to cells simultaneously. To evaluate the potential mode of action of Rg3, various combinations of valacyclovir, Rg3 and HSV-1 were tested at different time periods. The following combinations were evaluated at both one hour and four hours: • Virus applied to cells first (for one hour or four hours), followed by addition of valacyclovir, Rg3 or both valacyclovir and Rg3 to the cells; • Valacyclovir or Rg3 or both valacyclovir and Rg3 applied to cells first (for one or four hours), followed by virus; • Valacyclovir or Rg3 incubated together with virus first for one or four hours then added to cells.
All procedures described for evaluation of virus inhibition were followed in identical fashion as outlined for the PrestoBlue procedure except valacyclovir was used at a constant concentration of 16 μM and 20(S)-Rg3 at 50 μM.

Q: With 20(S)-Rh2 as the molecule, how does the “Percent Inhibition of HSV-1” value (HSV-1 [1]) read?
A: 46.2%

Q: With `CC(C)=CCC[C@@](C)(O)C1CC[C@]2(C)C1[C@H](O)CC1[C@@]3(C)CC[C@H](O[C@@H]4OC(CO)[C@@H](O)[C@@H](O)C4O[C@@H]4OC(CO)[C@@H](O)[C@@H](O)C4O)C(C)(C)C3CC[C@]12C` (stereo partly drawn) [20(R)-Rg3, 20(R)-ginsenoside-Rg3] as the molecule, how does the “Percent Inhibition of HSV-1” value (HSV-1 [1]) read?
A: 22.7%

Q: Which “Cytotoxicity (non-toxic concentration)” value (Vero cells) does the source give for `CC(C)=CCC[C@@](C)(O)[C@H]1CC[C@]2(C)[C@@H]1[C@H](O)C[C@@H]1[C@@]3(C)CC[C@H](O)C(C)(C)[C@@H]3CC[C@]12C` [20(R)-protopanaxadiol, reference compound] here?
A: 12.5 µM

Q: What about the “Percent Inhibition of HSV-1” value (HSV-1 [1]) of the same molecule?
A: 14.4%

Q: For `CC(C)=CCC[C@](C)(O)[C@H]1CC[C@]2(C)[C@@H]1[C@H](O)C[C@@H]1[C@@]3(C)CC[C@H](O)C(C)(C)[C@@H]3CC[C@]12C` [20(S)-protopanaxadiol, reference compound], which toxicity (Vero cells; 25 μM) is on record?
A: non-toxic

Q: And the “Cytotoxicity (non-toxic concentration)” value (Vero cells)?
A: 12.5 µM

Q: With `CC(C)=CCC[C@](C)(O[C@@H]1O[C@H](CO[C@@H]2O[C@H](CO)[C@@H](O)[C@H](O)[C@H]2O)[C@@H](O)[C@H](O)[C@H]1O)[C@H]1CC[C@]2(C)[C@@H]1[C@H](O)C[C@@H]1[C@@]3(C)CC[C@H](O[C@@H]4O[C@H](CO)[C@@H](O)[C@H](O)[C@H]4O[C@@H]4O[C@H](CO)[C@@H](O)[C@H](O)[C@H]4O)C(C)(C)[C@@H]3CC[C@]12C` [Rb1] as the molecule, how does the “Percent Inhibition of HSV-1” value (HSV-1 [1]) read?
A: 23% and 23.3%

Q: For `CC(C)=CCC[C@](C)(O[C@@H]1O[C@H](CO[C@@H]2OC[C@H](O)[C@H](O)[C@H]2O)[C@@H](O)[C@H](O)[C@H]1O)[C@H]1CC[C@]2(C)[C@@H]1[C@H](O)C[C@@H]1[C@@]3(C)CC[C@H](O[C@@H]4O[C@H](CO)[C@@H](O)[C@H](O)[C@H]4O[C@@H]4O[C@H](CO)[C@@H](O)[C@H](O)[C@H]4O)C(C)(C)[C@@H]3CC[C@]12C` [Rb2], which “Percent Inhibition of HSV-1” value (HSV-1 [1]) is on record?
A: 26.4%

Q: With `CC(C)=CCC[C@](C)(O[C@@H]1O[C@H](CO[C@@H]2OC[C@@H](O)[C@H](O)[C@H]2O)[C@@H](O)[C@H](O)[C@H]1O)[C@H]1CC[C@]2(C)[C@@H]1[C@H](O)C[C@@H]1[C@@]3(C)CC[C@H](O[C@@H]4O[C@H](CO)[C@@H](O)[C@H](O)[C@H]4O[C@@H]4O[C@H](CO)[C@@H](O)[C@H](O)[C@H]4O)C(C)(C)[C@@H]3CC[C@]12C` [Rb3] as the molecule, how does the “Percent Inhibition of HSV-1” value (HSV-1 [1]) read?
A: 30.9%

Q: With `CC(C)=CCC[C@](C)(O[C@@H]1O[C@H](CO)[C@@H](O)[C@H](O)[C@H]1O)[C@H]1CC[C@]2(C)[C@@H]1[C@H](O)C[C@@H]1[C@@]3(C)CC[C@H](O)C(C)(C)[C@@H]3[C@@H](O[C@@H]3O[C@H](CO)[C@@H](O)[C@H](O)[C@H]3O)C[C@]12C` [Rg1] as the molecule, how does the “Percent Inhibition of HSV-1” value (HSV-1 [1]) read?
A: 13.2%

Q: Which “effect on coxsackie B 3 virus” value (coxsackie B 3 virus) does the source give for `CC(C)=CCC[C@](C)(O)[C@H]1CC[C@]2(C)[C@@H]1[C@H](O)C[C@@H]1[C@@]3(C)CC[C@H](O)C(C)(C)[C@@H]3[C@@H](O[C@@H]3O[C@H](CO)[C@@H](O)[C@H](O)[C@H]3O[C@@H]3O[C@@H](C)[C@H](O)[C@@H](O)[C@H]3O)C[C@]12C` [Rg2] here?
A: inhibitory effects

Q: What about the “effect on human rhinovirus 3” value (human rhinovirus 3) of the same molecule?
A: inhibitory effects

Q: Which Percent Cell Death (Vero cells; African green monkey, 48 h, 16 μM) does the source give for `CC(C)[C@H](N)C(=O)OCCOCn1cnc2c(=O)[nH]c(N)nc21` [Valacyclovir, reference compound] here?
A: 1.2±0.4%

Q: What about the “Percent Reduction of plaques compared to the control” value (HSV-1 [2]) of the same molecule?
A: 85.7%

Q: And the “Number of Plaques” value (HSV-1 [2]; ± standard error)?
A: 8.1 ± 1.1

Q: And the inhibition at 16 µM (HSV-1 [3])?
A: 52.3 to 54.7%
